From patent US9121026B2 (priority 2004, dated 2015)

Test system: RE700A i PCDR2-HXT7 (IT[CDR2])
Assay: Growth inhibition of IT[CDR2] by 2-DG
Assay type: cell-based, Saccharomyces cerevisiae
Settings: 20 h 28° C., maltose, regarding growth in the absence of 2-DG
Description: FIG. 8: Growth inhibition of RE700A and IT[CDR2] by 2-DG. RE700A and IT[CDR2] were incubated for 20 h at 28° C. with maltose (2% (w/v)) as the sole carbon source and increasing 2-DG concentrations as indicated. The optical density was measured at 600 nm every 15 minutes and the integral under the growth curve was calculated. Inhibition of growth is shown in percent regarding growth in the absence of 2-DG. Growth of IT[CDR2] was inhibited by 30% at a 2-DG concentration of 0.1% (w/v), by 79% at a 2-DG concentration of 1% (w/v), by 89% at a 2-DG concentration of 2% (w/v), by 91% at a 2-DG concentration of 3% (w/v).
(4) Integrated screening system for inhibitors of PCDR2: S. cerevisiae strain RE700A was genetically modified as described in Examples 1 and 2 to yield strain IT[CDR2], chromosomally expressing HXT7 under the control of the promoter of CDR2 (PCDR2) (for the complete genotype see Table 1). The inhibition of growth of IT[CDR2] by 2-DG was tested. The growth of this strain was inhibited by 50% at a 2-DG concentration of 1% (w/v) and by 80% at a 2-DG concentration of 2% (w/v) (FIG. 8).

Question: Which Inhibition of growth (0.1% (w/v) 2-DG) does the source give for `O=CC[C@@H](O)[C@H](O)[C@H](O)CO` [2-DG, 2-deoxy-glucose] here?
Answer: 30%

Question: What about the Inhibition of growth (3% (w/v) 2-DG) of the same compound?
Answer: 91%
